How the values were obtained:
[1] = Cytotoxicity against mouse RAW264.7 cells assessed as cell survival at 50 uM by MTT assay relative to control; type: toxicity, cell-based; conditions: read-out: Activity
RAW264.7 [2] = assay: Antiinflammatory activity against LPS-stimulated mouse RAW264.7 cells assessed as inhibition of NO production preincubated with compound for 2 hrs followed by LPS stimulation and measured after 12 hrs by Griess reagent based microplate reader analysis; type: functional, cell-based
RAW264.7 [3] = assay: Antiinflammatory activity against LPS-stimulated mouse RAW264.7 cells assessed as inhibition of NO production at 50 uM preincubated with compound for 2 hrs followed by LPS stimulation and measured after 12 hrs by Griess reagent based microplate reader analysis relative to control; type: functional; conditions: time 14 hrs

Row | IC50 (RAW264.7 [2]) [µM] | Structure (SMILES) | viability at 50 µM [1] [%] | inhibition at 50 µM (RAW264.7 [3]) [%]
1 | 19 | C/C1=C\C[C@]2(C)C(=O)C(O)=C([C@H](C)CO)[C@H]2C/C=C(\C)C(=O)CC/C(C)=C/CC1 | > 90 | 
2 |  | C/C1=C\C[C@]2(C)C(=O)C(O)=C([C@H](C)CO)[C@H]2C[C@H]2O[C@]2(C)[C@@H](O)CC/C(C)=C/CC1 | > 90 | < 40
3 |  | C/C1=C\C[C@]2(C)C(=O)C(O)=C([C@H](C)CO)[C@H]2C/C=C(\C)[C@@H](O)CC/C(C)=C/CC1 [TERPESTACIN] | > 90 | < 40
4 |  | CC(=O)O[C@H]1CC/C(C)=C/CC/C(C)=C/C[C@]2(C)C(=O)C(O)=C([C@H](C)CO)[C@H]2C/C=C/1C | > 90 | < 40
5 |  | CC(=O)OC[C@@H](C)C1=C(O)C(=O)[C@@]2(C)C/C=C(\C)CC/C=C(\C)CC[C@H](O)/C(C)=C/C[C@H]12 [FUSAPROLIFERIN] | > 90 | < 40
6 |  | CC(=O)OC[C@@H](C)C1=C(O)C(=O)[C@@]2(C)C/C=C(\C)CC[C@@H]3O[C@@]3(C)CC[C@H](O)/C(C)=C/C[C@H]12 | > 90 | < 40
7 |  | CC(=O)OC[C@@H](C)C1=C(O)C(=O)[C@@]2(C)C/C=C(\C)CC/C=C(\C)CC[C@H](O)[C@@]3(C)O[C@@H]3C[C@H]12 | > 90 | < 40
8 |  | C/C1=C\C[C@]2(C)C(=O)C(O)=C([C@H](C)CO)[C@H]2C/C=C(\C)[C@@H]2CC[C@](C)(/C=C/C1)O2 | > 90 | < 40
9 | 6.7 | C[C@@H]1C[C@H]2[C@@H]3CCC4=CC(=O)C=C[C@]4(C)[C@@]3(F)[C@@H](O)C[C@]2(C)[C@@]1(O)C(=O)CO [DEXAMETHASONE] |  | 
10 |  | CC(=O)OC[C@@H](C)C1=C(O)C(=O)[C@@]2(C)C/C=C(\C)C/C=C/[C@](C)(O)CC[C@@H](O)/C(C)=C/C[C@H]12 | > 90 | < 40

From ChEMBL document CHEMBL5356997, “Maydistacins A-G, Terpestacin-type Sesterterpenoids with Anti-inflammatory Activity from the Phytopathogenic Fungus Bipolaris maydis” (J Nat Prod, 2024)
